Assay results as given in patent US20130330754A1, “SOL-GEL DERIVED SENSOR FOR RAPID DETERMINATION OF HEAVY METALS” (priority 2012, published 2013).

What was measured:
β-galactosidase (B-GAL) [1] = target: T1, β-galactosidase (B-GAL) (Escherichia coli, UniProt P00722); conditions: EDTA 10 mM; Hg(II), Ag(I) ~2.7 ppm each, other metals ~8 ppm each
β-galactosidase (B-GAL) [2] = target: T1, β-galactosidase (B-GAL); experiment: B-GAL inhibition by heavy metals on bioactive paper sensor (CPRG colour intensity); format: biochemical, E. coli; conditions: for IC50 values (concentration to obtain 50% inhibition of B-GAL) / limits of detection (LODs): paper sensor, 10 min incubation with metal; for limits of detection (LODs): B-GAL/CPRG assay; for inhibition of B-GAL: single metal
Excerpt: The sensors were constructed based on an enzyme, B-GAL vs. substrate, CPRG system with three design strategies: a one-dimensional strategy and two flower shape strategies. In the one-dimensional strategy, a section of Whatman #1 paper was cut into small pieces (0.5×8 cm) on which B-GAL and CPRG were entrapped using sol-gel derived sol gel materials into two different zones (e.g., enzyme or sensing and substrate zones). To prevent leaching the color, a hydrophobic barrier was also introduced on the top (FIG. 1b) of the sensing zone(s) using either wax (by wax printer, Xerox Phaser 8560N) or methyltrimethoxysilane (MTMS) (via piezoelectric inkjet printing).
The sensing zones for all cases were incubated with a drop of contaminated sample for 10 min. The bottom of the paper sensor (FIG. 1b, c) was placed into water while a few drops of water were put at the middle of the sensor (FIG. 1d) for lateral flow chromatography. The color intensity was monitored after 5 min air drying at room temperature. The inkjet printing was done as described elsewhere.^31, 32 After printing, the sensor was allowed to dry for at least 1 h in air at room temperature.
The inhibitory effects of these metals on the solid-phase biosensor were evaluated by measuring the decrease in the color intensity produced by the enzyme-substrate reaction. The sensing region of the paper sensor was first incubated with various concentrations of heavy metals (5 μL) for 10 min after which the paper sensor was allowed for lateral flow chronographic system. The images were taken after 5-10 min air drying at room temperature.
The color intensity of the sensing areas was monitored either by the naked eye, by obtaining a digital image (Canon G11 12 MegaPixel camera operated in automatic mode with no flash and with the macroimaging setting on) or by using an office scanner, with ImageJ™ software being used to analyze the Jpeg images in the latter two cases. The numerical single color coordinates values were obtained using the ImageJ™ color split channel system. All data points represent the average of four replicate experiments and the error bars represent the standard deviations (s.d.) of those points.

β-galactosidase (B-GAL) [3] = target: T1, β-galactosidase (B-GAL)
Method: The sensor was incubated with a 5 μL sample for 10 min (a separate paper sensor was made for each concentration) and the B-GAL inhibition tested as outlined above.

T1 sequence (P00722 2-1024): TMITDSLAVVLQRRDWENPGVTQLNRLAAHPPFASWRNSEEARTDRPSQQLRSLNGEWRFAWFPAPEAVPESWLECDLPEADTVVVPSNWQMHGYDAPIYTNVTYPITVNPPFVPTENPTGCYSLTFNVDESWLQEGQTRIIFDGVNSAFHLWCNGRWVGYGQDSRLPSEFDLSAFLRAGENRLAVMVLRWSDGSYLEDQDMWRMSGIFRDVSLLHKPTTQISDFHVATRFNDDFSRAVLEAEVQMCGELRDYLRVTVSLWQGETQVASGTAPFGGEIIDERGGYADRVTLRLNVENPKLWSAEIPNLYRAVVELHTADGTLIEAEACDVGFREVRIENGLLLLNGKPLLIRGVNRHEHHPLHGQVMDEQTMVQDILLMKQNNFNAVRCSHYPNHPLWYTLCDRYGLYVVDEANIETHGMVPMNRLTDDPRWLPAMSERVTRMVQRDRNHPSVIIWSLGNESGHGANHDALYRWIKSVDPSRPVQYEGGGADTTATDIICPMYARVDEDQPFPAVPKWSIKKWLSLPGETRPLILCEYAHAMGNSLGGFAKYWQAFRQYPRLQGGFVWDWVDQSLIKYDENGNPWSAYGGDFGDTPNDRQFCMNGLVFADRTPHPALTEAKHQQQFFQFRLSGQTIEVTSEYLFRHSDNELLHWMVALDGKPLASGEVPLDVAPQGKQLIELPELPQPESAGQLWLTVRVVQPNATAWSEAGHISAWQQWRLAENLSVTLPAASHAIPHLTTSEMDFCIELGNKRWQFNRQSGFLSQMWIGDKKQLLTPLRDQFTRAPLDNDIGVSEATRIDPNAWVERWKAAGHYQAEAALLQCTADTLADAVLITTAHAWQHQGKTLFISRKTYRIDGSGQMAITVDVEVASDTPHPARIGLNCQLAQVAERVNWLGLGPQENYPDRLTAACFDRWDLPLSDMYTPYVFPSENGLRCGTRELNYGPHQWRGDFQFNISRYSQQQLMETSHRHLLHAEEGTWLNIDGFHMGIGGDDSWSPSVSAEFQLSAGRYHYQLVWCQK

## O=[N+]([O-])[O-].[Ag+] [Ag(I), AgNO3]
β-galactosidase (B-GAL) [1]
  inhibition of B-GAL after inclusion of EDTA: retaining the inhibition
β-galactosidase (B-GAL) [2]
  IC50 values (concentration to obtain 50% inhibition of B-GAL): 0.05 ppm
  limits of detection (LODs): ~0.002 ppm
β-galactosidase (B-GAL) [2]; 0.1 μM
  inhibition of B-GAL: about 35%

## [Cl][Cd][Cl] [Cd(II), CdCl2]
β-galactosidase (B-GAL) [1]
  inhibition of B-GAL after inclusion of EDTA: completely removed the inhibition
β-galactosidase (B-GAL) [2]
  IC50 values (concentration to obtain 50% inhibition of B-GAL): 1.14 ppm
  limits of detection (LODs): ~0.020 ppm

## [Pb+2] [Pb(II)]
β-galactosidase (B-GAL) [1]
  inhibition of B-GAL after inclusion of EDTA: completely removed the inhibition
β-galactosidase (B-GAL) [2]
  IC50 values (concentration to obtain 50% inhibition of B-GAL): 1.40 ppm
  limits of detection (LODs): ~0.140 ppm

## O=S(=O)([O-])[O-].[Cu+2] [Cu(II), CuSO4]
β-galactosidase (B-GAL) [1]
  inhibition of B-GAL after inclusion of EDTA: completely removed the inhibition
β-galactosidase (B-GAL) [2]
  IC50 values (concentration to obtain 50% inhibition of B-GAL): 0.70 ppm
  limits of detection (LODs): ~0.020 ppm
β-galactosidase (B-GAL) [2]; 3 μM
  inhibition of B-GAL: 23%

## [Cl-].[Na+] [NaCl]
β-galactosidase (B-GAL) [3]; NaCl 10 μM, KCl 100 ppm
  effect of nontoxic metal ion on response vs. concentration of Hg^2+ and limit of detection: negligible effect

## [Cl][Hg][Cl] [Hg(II), HgCl2]
β-galactosidase (B-GAL) [3]; Hg^2+ mixed with NaCl (10 μM)
  limit of detection: ~0.01 µM
β-galactosidase (B-GAL) [3]; read-out: IC50 value, Hg^2+ mixed with NaCl (10 μM)
  IC50: 120 nM
β-galactosidase (B-GAL) [1]
  inhibition of B-GAL after inclusion of EDTA: completely removed the inhibition
β-galactosidase (B-GAL) [2]
  IC50 values (concentration to obtain 50% inhibition of B-GAL): 0.03 ppm
β-galactosidase (B-GAL) [2]; 0.1 μM
  inhibition of B-GAL: 42%

## [Ni+2] [Ni(II)]
β-galactosidase (B-GAL) [1]
  inhibition of B-GAL after inclusion of EDTA: completely removed the inhibition
β-galactosidase (B-GAL) [2]
  IC50 values (concentration to obtain 50% inhibition of B-GAL): 1.80 ppm
  limits of detection (LODs): ~0.230 ppm

## Cr(VI)
β-galactosidase (B-GAL) [1]
  inhibition of B-GAL after inclusion of EDTA: retaining the inhibition
β-galactosidase (B-GAL) [2]
  IC50 values (concentration to obtain 50% inhibition of B-GAL): 1.49 ppm
  limits of detection (LODs): ~0.150 ppm
